In patent US20210113501A1, “METHOD OF ADMINISTERING BETA-HYDROXY-BETA-METHYLBUTYRATE (HMB)” (Metabolic Technologies, Inc., priority 2009, published 2021):
Marks after values point to notes of the source that are not given here.

Legend:
[1] = Study 1 hematology (complete blood count); assay type: in vivo, human; settings: for Basophils (absolute) % Change / Basophils, % - % Change / Eosinophils (absolute) % Change / Eosinophils, % - % Change / Hematocrit % Change / Hemoglobin % Change / Lymphocytes (absolute) % Change / Lymphocytes, % - % Change / MCH % Change / MCHC % Change / MCV % Change / Monocytes (absolute) % Change / Monocytes, % - % Change / Neutrophils (absolute) % Change / Neutrophils, % - % Change / Platelets % Change / RBC % Change / RDW % Change / WBC % Change: Before to After
Description: Study 1 design. For study 1 the subjects reported to the laboratory in the morning following an overnight fast. Before ingestion of one of the supplemental treatments, a flexible sterile polyethylene catheter was inserted into a forearm vein using sterile procedures and a pre-ingestion blood sample was drawn. Subsequent blood samples were taken at 0, 2, 5, 10, 15, 25, 35, 45, 60, 90, 120 and 180 min after ingestion of the treatment. Plasma was separated and samples were stored frozen at −70° C. for analysis of HMB concentration. In addition, a portion of the pre-ingestion and 180 minute blood samples were used for measurements (LabCorp, Kansas City, Mo.) of glucose, uric acid, blood urea nitrogen (BUN), creatinine, sodium, potassium, chloride, carbon dioxide, phosphorous, protein, albumin, globulin, albumin:globulin ratio, total bilirubin, direct bilirubin, alkaline phosphatase, lactate dehydrogenase, aspartate aminotransferase (AST), alanine aminotransferase (ALT), gamma-glutamyl transpeptidase (GGT), iron binding capacity (TIBC), unsaturated iron binding capacity (UIBC), iron, iron saturation, total cholesterol, triglycerides, high density lipoprotein (HDL), low density lipoprotein (LDL), and cholesterol ratio. A complete blood count (CBC) was also performed before and after the 180 min treatment period. Subjects also completed a brief questionnaire to report any physical symptoms (such as nausea, headache, etc) they may have experienced during the experiment.
The data were analyzed using a crossover design with Proc GLM in SAS. (45) For the timed sampling of plasma HMB a repeated measures polynomial model was used. The model included subject, order, and treatment main effects and time by treatment interaction where appropriate. For other parameters Proc GLM was also used with subject, order, and treatment main effects and the p values are reported for the treatment main effect. Statistical significance was determined for p<0.05 and a trend was determined for 0.05<p<0.10.

[2] = cited from earlier work

CC(C)(O)CC(=O)[O-].CC(C)(O)CC(=O)[O-].[Ca+2] [CaHMB, calcium β-hydroxy-β-methylbutryate, reference compound]
Basophils (absolute) ([1]; After (180 min)): 0.04 ± 0.0 ×10^3/μL
Basophils, % ([1]; After (180 min)): 0.4 ± 0.2%
Eosinophils (absolute) ([1]; After (180 min)): 0.1 ± 0.04 ×10^3/μL
Eosinophils, % ([1]; After (180 min)): 2.1 ± 0.6%
Hematocrit ([1]; After (180 min)): 38.7 ± 1.3%
Hemoglobin ([1]; After (180 min)): 13.4 ± 0.5 g/dL
Lymphocytes (absolute) ([1]; After (180 min)): 2.1 ± 0.2 ×10^3/μL
Lymphocytes, % ([1]; After (180 min)): 34.0 ± 3.4%
MCH ([1]; After (180 min)): 31.3 ± 0.6 pg
MCHC ([1]; After (180 min)): 34.7 ± 0.2 g/dL
MCV ([1]; After (180 min)): 90.4 ± 1.5 fL
Monocytes (absolute) ([1]; After (180 min)): 0.5 ± 0.1 ×10^3/μL
Monocytes, % ([1]; After (180 min)): 7.4 ± 0.7%
Neutrophils (absolute) ([1]; After (180 min)): 3.8 ± 0.7 ×10^3/μL
Neutrophils, % ([1]; After (180 min)): 56.1 ± 3.8%
Platelets ([1]; After (180 min)): 202.9 ± 16^ ×10^3/μL
RBC ([1]; After (180 min)): 4.3 ± 0.2 ×10^6/µL
RDW ([1]; After (180 min)): 13.1 ± 0.2%
WBC ([1]; After (180 min)): 6.4 ± 0.7 ×10^3/μL
Basophils (absolute) ([1]; Before): 0.05 ± 0.0 ×10^3/μL
Basophils, % ([1]; Before): 0.5 ± 0.2%
Eosinophils (absolute) ([1]; Before): 0.2 ± 0.04 ×10^3/μL
Eosinophils, % ([1]; Before): 2.5 ± 0.4%
Hematocrit ([1]; Before): 38.3 ± 1.1%
Hemoglobin ([1]; Before): 13.3 ± 0.4 g/dL
Lymphocytes (absolute) ([1]; Before): 2.5 ± 0.1 ×10^3/μL
Lymphocytes, % ([1]; Before): 39.6 ± 2.8%
MCH ([1]; Before): 31.2 ± 0.6 pg
MCHC ([1]; Before): 34.7 ± 0.1 g/dL
MCV ([1]; Before): 90.0 ± 1.5 fL
Monocytes (absolute) ([1]; Before): 0.5 ± 0.1 ×10^3/μL
Monocytes, % ([1]; Before): 7.1 ± 0.9%
Neutrophils (absolute) ([1]; Before): 3.3 ± 0.4 ×10^3/μL
Neutrophils, % ([1]; Before): 50.3 ± 3.3%
Platelets ([1]; Before): 209.0 ± 14^ ×10^3/μL
RBC ([1]; Before): 4.3 ± 0.2 ×10^6/µL
RDW ([1]; Before): 13.1 ± 0.2%
WBC ([1]; Before): 6.4 ± 0.4 ×10^3/μL
Basophils (absolute) % Change [1]: −25.0%
Basophils, % - % Change [1]: −25.0%
Eosinophils (absolute) % Change [1]: −21.4%
Eosinophils, % - % Change [1]: −15.0%
Hematocrit % Change [1]: 1.2%
Hemoglobin % Change [1]: 1.2%
Lymphocytes (absolute) % Change [1]: −15.6%
Lymphocytes, % - % Change [1]: −14.2%
MCH % Change [1]: 0.3%
MCHC % Change [1]: 0.1%
MCV % Change [1]: 0.4%
Monocytes (absolute) % Change [1]: 8.3%
Monocytes, % - % Change [1]: 3.5%
Neutrophils (absolute) % Change [1]: 14.5%
Neutrophils, % - % Change [1]: 11.7%
Platelets % Change [1]: −2.9%
RBC % Change [1]: 1.0%
RDW % Change [1]: 0.1%
WBC % Change [1]: 0.3%
time of peak plasma HMB levels after ingestion ([2]; depending upon the dosage): 60 to 120 min
plasma peak levels, 3 grams versus 1 gram dose ([2]; oral, Vukovich et al): 3 times
time to peak plasma levels ([2]; typical 1 gram dosage): 2 h

CC(C)(O)CC(=O)O [HMB-Acid Gel Sublingual, 3-hydroxy-3-methylbutyric acid]
Basophils (absolute) ([1]; After (180 min)): 0.03 ± 0.02 ×10^3/μL
Basophils, % ([1]; After (180 min)): 0.3 ± 0.2%
Eosinophils (absolute) ([1]; After (180 min)): 0.1 ± 0.02 ×10^3/μL
Eosinophils, % ([1]; After (180 min)): 1.8 ± 0.3%
Hematocrit ([1]; After (180 min)): 38.5 ± 1.7%
Hemoglobin ([1]; After (180 min)): 13.3 ± 0.6 g/dL
Lymphocytes (absolute) ([1]; After (180 min)): 2.2 ± 0.2 ×10^3/μL
Lymphocytes, % ([1]; After (180 min)): 35.5 ± 2.1%
MCH ([1]; After (180 min)): 31.0 ± 0.5 pg
MCHC ([1]; After (180 min)): 34.5 ± 0.2 g/dL
MCV ([1]; After (180 min)): 89.9 ± 1.7 fL
Monocytes (absolute) ([1]; After (180 min)): 0.5 ± 0.05 ×10^3/μL
Monocytes, % ([1]; After (180 min)): 7.1 ± 0.7%
Neutrophils (absolute) ([1]; After (180 min)): 3.5 ± 0.3 ×10^3/μL
Neutrophils, % ([1]; After (180 min)): 55.4 ± 2.9%
Platelets ([1]; After (180 min)): 213.9 ± 19.1 ×10^3/μL
RBC ([1]; After (180 min)): 4.3 ± 0.2 ×10^6/µL
RDW ([1]; After (180 min)): 13.3 ± 0.2%
WBC ([1]; After (180 min)): 6.3 ± 0.4 ×10^3/μL
Basophils (absolute) ([1]; Before): 0.03 ± 0.02 ×10^3/μL
Basophils, % ([1]; Before): 0.3 ± 0.2%
Eosinophils (absolute) ([1]; Before): 0.2 ± 0.03 ×10^3/μL
Eosinophils, % ([1]; Before): 2.4 ± 0.4%
Hematocrit ([1]; Before): 37.8 ± 1.6%
Hemoglobin ([1]; Before): 13.1 ± 0.6 g/dL
Lymphocytes (absolute) ([1]; Before): 2.8 ± 0.2 ×10^3/μL
Lymphocytes, % ([1]; Before): 43.0 ± 1.4%
MCH ([1]; Before): 31.0 ± 0.5 pg
MCHC ([1]; Before): 34.7 ± 0.2 g/dL
MCV ([1]; Before): 89.6 ± 1.6 fL
Monocytes (absolute) ([1]; Before): 0.5 ± 0.1 ×10^3/μL
Monocytes, % ([1]; Before): 7.0 ± 1.0%
Neutrophils (absolute) ([1]; Before): 3.1 ± 0.3 ×10^3/μL
Neutrophils, % ([1]; Before): 47.4 ± 2.2%
Platelets ([1]; Before): 221.3 ± 20.8 ×10^3/μL
RBC ([1]; Before): 4.2 ± 0.2 ×10^6/µL
RDW ([1]; Before): 13.2 ± 0.2%
WBC ([1]; Before): 6.6 ± 0.4 ×10^3/μL
Basophils (absolute) % Change [1]: 0.0%
Basophils, % - % Change [1]: 0.0%
Eosinophils (absolute) % Change [1]: −28.6%
Eosinophils, % - % Change [1]: −26.3%
Hematocrit % Change [1]: 2.0%
Hemoglobin % Change [1]: 1.4%
Lymphocytes (absolute) % Change [1]: −22.1%
Lymphocytes, % - % Change [1]: −17.4%
MCH % Change [1]: 0.0%
MCHC % Change [1]: −0.5%
MCV % Change [1]: 0.3%
Monocytes (absolute) % Change [1]: 0.0%
Monocytes, % - % Change [1]: 1.8%
Neutrophils (absolute) % Change [1]: 11.6%
Neutrophils, % - % Change [1]: 16.9%
Platelets % Change [1]: −3.3%
RBC % Change [1]: 1.7%
RDW % Change [1]: 0.9%
WBC % Change [1]: −4.2%

CC(C)(O)CC(=O)O [HMB-Acid Gel Swallow, 3-hydroxy-3-methylbutyric acid]
Basophils (absolute) ([1]; After (180 min)): 0.04 ± 0.02 ×10^3/μL
Basophils, % ([1]; After (180 min)): 0.4 ± 0.2%
Eosinophils (absolute) ([1]; After (180 min)): 0.1 ± 0.02 ×10^3/μL
Eosinophils, % ([1]; After (180 min)): 2.4 ± 0.4%
Hematocrit ([1]; After (180 min)): 37.6 ± 1.5%
Hemoglobin ([1]; After (180 min)): 13.0 ± 0.5 g/dL
Lymphocytes (absolute) ([1]; After (180 min)): 2.2 ± 0.1 ×10^3/μL
Lymphocytes, % ([1]; After (180 min)): 37.4 ± 1.9%
MCH ([1]; After (180 min)): 31.4 ± 0.8 pg
MCHC ([1]; After (180 min)): 34.6 ± 0.3 g/dL
MCV ([1]; After (180 min)): 90.0 ± 1.5 fL
Monocytes (absolute) ([1]; After (180 min)): 0.5 ± 0.04 ×10^3/μL
Monocytes, % ([1]; After (180 min)): 7.0 ± 0.6%
Neutrophils (absolute) ([1]; After (180 min)): 3.3 ± 0.2 ×10^3/μL
Neutrophils, % ([1]; After (180 min)): 52.9 ± 2.2%
Platelets ([1]; After (180 min)): 202.4 ± 25. ×10^3/μL
RBC ([1]; After (180 min)): 4.2 ± 0.2 ×10^6/µL
RDW ([1]; After (180 min)): 13.2 ± 0.3%
WBC ([1]; After (180 min)): 6.1 ± 0.3 ×10^3/μL
Basophils (absolute) ([1]; Before): 0.01 ± 0.01^a ×10^3/μL
Basophils, % ([1]; Before): 0.1 ± 0.1^a %
Eosinophils (absolute) ([1]; Before): 0.2 ± 0.04 ×10^3/μL
Eosinophils, % ([1]; Before): 2.5 ± 0.3%
Hematocrit ([1]; Before): 37.6 ± 1.6%
Hemoglobin ([1]; Before): 13.1 ± 0.5 g/dL
Lymphocytes (absolute) ([1]; Before): 3.1 ± 0.3 ×10^3/μL
Lymphocytes, % ([1]; Before): 43.8 ± 2.8%
MCH ([1]; Before): 31.2 ± 0.7 pg
MCHC ([1]; Before): 34.7 ± 0.3 g/dL
MCV ([1]; Before): 90.1 ± 1.3 fL
Monocytes (absolute) ([1]; Before): 0.5 ± 0.1 ×10^3/μL
Monocytes, % ([1]; Before): 7.6 ± 0.7%
Neutrophils (absolute) ([1]; Before): 3.0 ± 0.2 ×10^3/μL
Neutrophils, % ([1]; Before): 46.0 ± 2.8%
Platelets ([1]; Before): 195.0 ± 31.5 ×10^3/μL
RBC ([1]; Before): 4.2 ± 0.2 ×10^6/µL
RDW ([1]; Before): 13.2 ± 0.2%
WBC ([1]; Before): 6.7 ± 0.5 ×10^3/μL
Basophils (absolute) % Change [1]: 200.0%
Basophils, % - % Change [1]: 200.0%
Eosinophils (absolute) % Change [1]: −41.2%
Eosinophils, % - % Change [1]: −5.0%
Hematocrit % Change [1]: −0.1%
Hemoglobin % Change [1]: −0.4%
Lymphocytes (absolute) % Change [1]: −29.1%
Lymphocytes, % - % Change [1]: −14.6%
MCH % Change [1]: 0.7%
MCHC % Change [1]: −0.3%
MCV % Change [1]: −0.1%
Monocytes (absolute) % Change [1]: −7.7%
Monocytes, % - % Change [1]: −8.2%
Neutrophils (absolute) % Change [1]: 10.9%
Neutrophils, % - % Change [1]: 14.9%
Platelets % Change [1]: 3.8%
RBC % Change [1]: 0.1%
RDW % Change [1]: 0.4%
WBC % Change [1]: −10.2%
decrease in absolute lymphocyte numbers over the measurement period ([1]; p<0.04): significantly greater decrease
